Article PMC9837035 (Nature Communications, 2023)
Values joined by “and” are separate entries in the source; they are usually repeats but may differ in a detail not shown here. Identical values can stand only once.

Legend:
PRMT8 = PRMT8 (Homo sapiens, UniProt Q9NR22); test: biochemical
[1] = Liver microsomal stability assay, monkey; format: in vitro ADME; conditions: for Metabolic stability, % remaining of RK-701: Monkey
Experimental: (§1) [Human/Rat] Liver microsome analyses (human, rat) were performed in triplicate by the Sumika Chemical Analysis Service (SCAS) according to the standard protocols. […] [Dog/Monkey] Liver microsome analyses (dog, monkey) were performed in duplicate by RIKEN according to the same protocols as SCAS.

PRMT5/MEP50 [2] = molecular target: T1, PRMT5/MEP50 (Homo sapiens, UniProt O14744); test: Radioisotope-based methyltransferase assay (selectivity)
G9a = molecular target: T2, G9a (Homo sapiens, UniProt Q96KQ7); test: Kinetic analysis by ALPHA (IC50 vs H3 peptide or SAM); format: biochemical; parameters: purchased BPS Bioscience; conditions: for IC50: 3 replicates
T2 sequence (Q96KQ7 1-1210): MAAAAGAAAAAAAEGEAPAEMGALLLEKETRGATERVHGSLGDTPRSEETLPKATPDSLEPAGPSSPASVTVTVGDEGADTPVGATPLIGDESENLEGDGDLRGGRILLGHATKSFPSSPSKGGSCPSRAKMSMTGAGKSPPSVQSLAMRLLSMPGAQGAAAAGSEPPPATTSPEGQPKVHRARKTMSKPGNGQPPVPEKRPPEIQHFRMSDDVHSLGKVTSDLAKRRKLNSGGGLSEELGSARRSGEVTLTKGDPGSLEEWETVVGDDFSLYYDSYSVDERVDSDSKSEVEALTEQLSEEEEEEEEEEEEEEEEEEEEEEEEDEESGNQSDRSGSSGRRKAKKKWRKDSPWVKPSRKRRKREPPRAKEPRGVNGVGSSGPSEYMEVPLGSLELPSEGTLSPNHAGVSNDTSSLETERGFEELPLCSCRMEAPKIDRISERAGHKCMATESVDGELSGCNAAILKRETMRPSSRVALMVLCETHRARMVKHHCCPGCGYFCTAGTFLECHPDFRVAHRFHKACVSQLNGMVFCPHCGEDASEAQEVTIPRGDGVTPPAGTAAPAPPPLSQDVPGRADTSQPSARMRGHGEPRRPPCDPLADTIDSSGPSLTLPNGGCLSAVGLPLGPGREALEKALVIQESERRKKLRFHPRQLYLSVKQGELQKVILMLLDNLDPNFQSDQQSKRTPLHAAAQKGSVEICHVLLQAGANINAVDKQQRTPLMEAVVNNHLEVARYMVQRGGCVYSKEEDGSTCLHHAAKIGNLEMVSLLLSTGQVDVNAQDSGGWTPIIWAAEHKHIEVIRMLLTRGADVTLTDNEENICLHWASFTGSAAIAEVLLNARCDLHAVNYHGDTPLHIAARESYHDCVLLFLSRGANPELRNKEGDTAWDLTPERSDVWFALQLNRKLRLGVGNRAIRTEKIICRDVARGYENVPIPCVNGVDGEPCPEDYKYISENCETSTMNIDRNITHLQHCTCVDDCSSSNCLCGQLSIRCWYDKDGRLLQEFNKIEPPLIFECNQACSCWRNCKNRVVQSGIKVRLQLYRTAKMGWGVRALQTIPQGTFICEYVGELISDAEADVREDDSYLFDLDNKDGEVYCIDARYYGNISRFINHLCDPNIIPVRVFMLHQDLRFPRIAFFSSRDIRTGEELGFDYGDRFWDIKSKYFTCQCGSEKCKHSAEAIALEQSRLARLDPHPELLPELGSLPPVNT
Experimental: Kinetic analysis was measured by ALPHA. […] ALPHA profile was analyzed using Origin (OriginLab).

PRMT5/MEP50 [3] = molecular target: T1, PRMT5/MEP50; test: biochemical
[4] = Liver microsomal stability assay, dog; format: in vitro ADME; conditions: for Metabolic stability, % remaining of RK-701: Dog
Experimental: as §1

T1 sequence (O14744 whole entry): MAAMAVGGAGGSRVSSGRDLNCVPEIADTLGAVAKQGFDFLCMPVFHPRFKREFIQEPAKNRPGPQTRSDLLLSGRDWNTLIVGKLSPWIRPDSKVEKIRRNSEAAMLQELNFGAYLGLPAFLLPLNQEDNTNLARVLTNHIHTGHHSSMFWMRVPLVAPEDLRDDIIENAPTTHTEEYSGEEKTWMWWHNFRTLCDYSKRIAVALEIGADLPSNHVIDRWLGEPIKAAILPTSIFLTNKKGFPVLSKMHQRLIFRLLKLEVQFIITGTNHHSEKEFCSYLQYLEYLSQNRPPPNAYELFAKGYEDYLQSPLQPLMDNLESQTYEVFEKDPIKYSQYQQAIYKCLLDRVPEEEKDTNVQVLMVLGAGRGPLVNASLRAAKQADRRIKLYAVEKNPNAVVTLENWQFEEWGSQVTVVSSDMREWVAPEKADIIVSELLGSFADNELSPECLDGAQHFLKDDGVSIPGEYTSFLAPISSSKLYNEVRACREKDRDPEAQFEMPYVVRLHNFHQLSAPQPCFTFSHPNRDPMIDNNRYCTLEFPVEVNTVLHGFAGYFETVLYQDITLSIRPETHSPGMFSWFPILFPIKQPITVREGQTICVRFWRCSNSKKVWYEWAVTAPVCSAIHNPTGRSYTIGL
T1 sequence (Q9BQA1 whole entry partner): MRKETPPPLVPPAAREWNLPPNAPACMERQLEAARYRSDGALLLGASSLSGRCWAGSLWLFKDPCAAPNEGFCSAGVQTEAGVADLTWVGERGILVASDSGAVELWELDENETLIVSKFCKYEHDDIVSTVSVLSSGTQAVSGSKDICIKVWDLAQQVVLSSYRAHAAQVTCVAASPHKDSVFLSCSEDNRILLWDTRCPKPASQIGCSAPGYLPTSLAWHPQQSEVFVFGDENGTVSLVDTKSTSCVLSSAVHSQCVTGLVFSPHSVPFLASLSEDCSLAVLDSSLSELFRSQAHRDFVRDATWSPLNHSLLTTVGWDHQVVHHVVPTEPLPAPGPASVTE
Chain of PRMT8 (Q9NR22 whole entry): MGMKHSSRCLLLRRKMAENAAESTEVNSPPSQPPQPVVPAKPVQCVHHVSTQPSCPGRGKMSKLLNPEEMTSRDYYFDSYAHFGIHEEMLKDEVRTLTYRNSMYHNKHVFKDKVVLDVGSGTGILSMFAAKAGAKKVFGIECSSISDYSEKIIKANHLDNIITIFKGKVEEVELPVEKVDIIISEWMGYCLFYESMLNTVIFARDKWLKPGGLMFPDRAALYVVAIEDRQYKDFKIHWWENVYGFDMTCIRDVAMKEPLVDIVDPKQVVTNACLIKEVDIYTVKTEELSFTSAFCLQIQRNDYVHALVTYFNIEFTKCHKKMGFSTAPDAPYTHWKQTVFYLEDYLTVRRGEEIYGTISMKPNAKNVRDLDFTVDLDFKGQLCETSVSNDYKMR

In the case of Cc1c(C(=O)NC(CCC2CC2)C(=O)Nc2ccc(C#N)cc2)[nH]c2c1C(=O)CC(C)(C)C2 (stereo not drawn) [RK-701], the IC50 (PRMT8) is reported as over 100000 nM, the “Metabolic stability, % remaining of RK-701” value ([1]; Time 5, replicate values) is reported as 117% and the “Metabolic stability, % remaining of RK-701” value ([1]; Time 10, replicate values) is reported as 94.6%. For the same molecule, the “Metabolic stability, % remaining of RK-701” value ([1]; Time 20, replicate values) was 60%, the “Metabolic stability, % remaining of RK-701” value ([1]; Time 30, replicate values) was 44.3% and the “Metabolic stability, % remaining of RK-701” value ([1]; Time 45, replicate values) was 26%. The “Metabolic stability, % remaining of RK-701” value ([1]; Time 60, replicate values) was 19.4%, the remaining at 5 min, 1 µM ([1]; monkey, liver microsomes, Metabolic stability, % remaining of RK-701, Monkey, Time 5, replicate values) was 106% and the remaining at 10 min, 1 µM ([1]; monkey, liver microsomes, Metabolic stability, % remaining of RK-701, Monkey, Time 10, replicate values) was 85.8%. It also gave a remaining at 20 min, 1 µM ([1]; monkey, liver microsomes, Metabolic stability, % remaining of RK-701, Monkey, Time 20, replicate values) of 57.4%, a remaining at 30 min, 1 µM ([1]; monkey, liver microsomes, Metabolic stability, % remaining of RK-701, Monkey, Time 30, replicate values) of 42.4% and a remaining at 45 min, 1 µM ([1]; monkey, liver microsomes, Metabolic stability, % remaining of RK-701, Monkey, Time 45, replicate values) of 24.2%. For the same molecule, the remaining at 60 min, 1 µM ([1]; monkey, liver microsomes, Metabolic stability, % remaining of RK-701, Monkey, Time 60, replicate values) was 16.8%, the microsomal CLint at 1 μM ([1]; monkey, liver microsomes, read-out: Metabolic stability in liver microsomes CLint) was 67 µL/min/mg and the IC50 (PRMT5/MEP50 [2]) was over 100000 nM. The “mode of inhibition, SAM” value (G9a) was “uncompetitive inhibition with respect to SAM”, the “mode of inhibition, histone H3 peptide” value (G9a) was “histone H3 substrate-competitive inhibitor” and the IC50 (G9a; H3(1-21)-biotin 6.25 nM) was 9.85 nM and 9.46 nM and 8.82 nM. For the same molecule, the IC50 (G9a; H3(1-21)-biotin 12.5 nM) was 8.26 nM and 13.4 nM and 10.5 nM, the IC50 (G9a; H3(1-21)-biotin 25 nM) was 11.7 nM and 18.2 nM and 17.3 nM and the IC50 (G9a; H3(1-21)-biotin 50 nM) was 20.2 nM and 32.1 nM and 26.2 nM. For the same molecule, the IC50 (G9a; H3(1-21)-biotin 100 nM) was 34.8 nM and 34.6 nM and 31.4 nM, the IC50 (G9a; SAM 0.47 µM) was 154 nM and 149 nM and 150 nM and the IC50 (G9a; SAM 0.94 µM) was 65.3 nM and 98.6 nM and 43.1 nM. For the same molecule, the IC50 (G9a; SAM 1.88 µM) was 30.6 nM and 57.4 nM and 24.3 nM, the IC50 (G9a; SAM 3.75 µM) was 23.5 nM and 39.6 nM and 21.1 nM and the IC50 (G9a; SAM 7.5 µM) was 27.8 nM and 38.9 nM and 11.8 nM. The IC50 (G9a; SAM 15 µM) was 25 nM and 37.5 nM and 12.8 nM, the IC50 (PRMT5/MEP50 [3]) was over 100000 nM and the “Metabolic stability, % remaining of RK-701” value ([4]; Time 5, replicate values) was 67.6%. For the same molecule, the “Metabolic stability, % remaining of RK-701” value ([4]; Time 10, replicate values) was 70.7% and 62.6%, the “Metabolic stability, % remaining of RK-701” value ([4]; Time 20, replicate values) was 60.6% and 44.6% and the “Metabolic stability, % remaining of RK-701” value ([4]; Time 30, replicate values) was 51.3% and 40.3%. The “Metabolic stability, % remaining of RK-701” value ([4]; Time 45, replicate values) was 47% and 30%, the “Metabolic stability, % remaining of RK-701” value ([4]; Time 60, replicate values) was 37.6% and 29.4% and the remaining at 5 min, 1 µM ([4]; dog, liver microsomes, Metabolic stability, % remaining of RK-701, Dog, Time 5, replicate values) was 72.6%. The remaining at 10 min, 1 µM ([4]; dog, liver microsomes, Metabolic stability, % remaining of RK-701, Dog, Time 10, replicate values) was 57%, the remaining at 20 min, 1 µM ([4]; dog, liver microsomes, Metabolic stability, % remaining of RK-701, Dog, Time 20, replicate values) was 53.4% and the remaining at 30 min, 1 µM ([4]; dog, liver microsomes, Metabolic stability, % remaining of RK-701, Dog, Time 30, replicate values) was 48.4%. It also gave a remaining at 45 min, 1 µM ([4]; dog, liver microsomes, Metabolic stability, % remaining of RK-701, Dog, Time 45, replicate values) of 37.1%, a remaining at 60 min, 1 µM ([4]; dog, liver microsomes, Metabolic stability, % remaining of RK-701, Dog, Time 60, replicate values) of 30.9% and a microsomal CLint at 1 μM ([4]; dog, liver microsomes, Dug, read-out: Metabolic stability in liver microsomes CLint) of 28 µL/min/mg.
